{
  "source": "paper PMC12412968",
  "about": "“Indolicidin derivatives as potent dual-action antifungal and antibacterial agents for the treatment of skin infections: A comprehensive study from in vitro to in vivo evaluation” (PLOS One, 2025)",
  "key": {"Candida albicans": {"system": "Candida albicans", "format": "cell-based", "conditions": "24 h", "description": "(§1) Bacteria (S. aureus, P. aeruginosa, S. epidermidis, E. coli, K. pneumoniae, Enterococcus) and Candida albicans from ATCC were cultured in appropriate media, adjusted to 10^6 CFU/mL before testing. The bacteria and fungal, taken from a deep freezer, were revived by culturing them in a nutrient-rich medium, to grow and form distinct colonies. These colonies were then diluted with physiological saline to reach a turbidity equivalent to 0.5 McFarland, corresponding to a bacterial and fungal concentration of 10⁸ CFU/mL. This suspension was further diluted with 0.9% saline to achieve a concentration of 10⁶ CFU/mL. Subsequently, the bacterial and fungal suspension were diluted 100-fold in Brain-Heart Infusion (BHI) broth to achieve a final concentration of 10⁴ CFU/mL. This bacterial and fungal suspension were used to determine the MIC values in the experiments. Peptides (IND and IND-4,11K) were diluted by 2-fold serial dilution in the range of […] and tested in 96-well plates containing Muller-Hinton (MH) medium. After adding bacteria (10^4 CFU/mL), the samples were incubated at 37°C for 24 h. MIC was determined as the lowest peptide concentration at which no bacterial growth was observed by measuring the optical density OD620 nm. […] The positive controls were Streptomycin for Gram-negative bacteria and Penicillin for Gram-positive bacteria. The negative control was 1X PBS solution. The positive control for antifungal activity was Nystatin.All experiments were performed in triplicate."}, "Enterococcus faecium": {"system": "Enterococcus faecium", "format": "cell-based", "conditions": "24 h", "description": "as §1"}, "Klebsiella pneumoniae": {"system": "Klebsiella pneumoniae", "format": "cell-based", "conditions": "24 h", "description": "as §1"}, "Pseudomonas aeruginosa": {"system": "Pseudomonas aeruginosa", "format": "cell-based", "conditions": "24 h", "description": "as §1"}, "[1]": {"system": "S. aureus, S. epidermidis, E. coli, K. pneumoniae, E. faecium, and P. aeruginosa", "format": "cell-based", "conditions": "Staphylococcus aureus, Staphylococcus epidermidis and Enterococcus faecium", "description": "as §1"}, "Staphylococcus aureus": {"system": "Staphylococcus aureus", "format": "cell-based", "conditions": "24 h", "description": "as §1"}, "[2]": {"system": "Staphylococcus epidermidis", "format": "cell-based", "conditions": "24 h", "description": "as §1"}, "red blood cell": {"system": "red blood cell", "assay": "Hemolysis assay", "format": "cell-based", "from_the_text": "The hemolysis assay results indicated a concentration-dependent effect of the peptides on red blood cell membrane integrity."}, "[3]": {"conditions": "64 µM in PBS pH 7.4, 25, 45, 65, 85°C and 37°C, shaking 600 rpm, HPLC-DAD 280 nm, tryptophan internal standard, duplicate", "description": "Peptides were dissolved in phosphate-buffered saline (PBS, pH 7.0) and 10% SDS solution. The peptide concentration was determined by direct weighing and mixing. The secondary structure was analyzed using a circular dichroism (CD) spectrometer. Peptides (64 µM) were dissolved in PBS (pH 7.4) with tryptophan as an internal standard. The solution was incubated at 25°C, 45°C, 65°C, and 85°C with shaking at 600 rpm. Peptide quantification was performed using HPLC-DAD at 280 nm with an injection volume of 20 µL. Each experiment was conducted in duplicate, and data were processed using Excel based on peak areas of tryptophan and peptide. Peptides (40 µM) were dissolved in PBS (pH 8.0) and incubated with 0.0005% trypsin at 37°C under shaking (600 rpm). Samples were collected at 0, 15, and 30 minutes and analyzed by HPLC-DAD at 280 nm with an injection volume of 40 µL [20, 21]."}, "trypsin": {"system": "trypsin", "assay": "Enzymatic stability with trypsin", "format": "in vitro ADME", "conditions": "40 µM in PBS pH 8.0, 0.0005% trypsin, 37°C, 600 rpm, 15 and 30 minutes, HPLC-DAD 280 nm, duplicate"}, "[4]": {"conditions": "broth dilution, 96-well, MH medium, 10^4 CFU/mL, 37°C, OD620, triplicate"}, "[5]": {"conditions": "plated from MIC well and higher onto MH agar, triplicate"}},
  "note": "Read-outs that look alike come from different tables or passages of the source. Ends that are not written are not given here.",
  "data": [
    {"compound": "CC[C@H](C)[C@H](N)C(=O)N[C@@H](CC(C)C)C(=O)N1CCC[C@H]1C(=O)N[C@@H](Cc1c[nH]c2ccccc12)C(=O)N[C@@H](CCCCN)C(=O)N[C@@H](Cc1c[nH]c2ccccc12)C(=O)N1CCC[C@H]1C(=O)N[C@@H](Cc1c[nH]c2ccccc12)C(=O)N[C@@H](Cc1c[nH]c2ccccc12)C(=O)N1CCC[C@H]1C(=O)N[C@@H](Cc1c[nH]c2ccccc12)C(=O)N[C@@H](CCCNC(=N)N)C(=O)N[C@@H](CCCNC(=N)N)C(N)=O", "note": "[IND, Indolicidin]", "values": [
      {"measurement": "MIC", "setting": "Candida albicans; [4]", "result": 64, "unit": "µM"},
      {"measurement": "MBC", "setting": "Candida albicans; [5]", "result": ">128", "unit": "µM"},
      {"measurement": "MIC", "setting": "Enterococcus faecium; [4]", "result": 32, "unit": "µM"},
      {"measurement": "MBC", "setting": "Enterococcus faecium; [5]", "result": 32, "unit": "µM"},
      {"measurement": "MIC", "setting": "Klebsiella pneumoniae; [4]", "result": ">128", "unit": "µM"},
      {"measurement": "MBC", "setting": "Klebsiella pneumoniae; [5]", "result": ">128", "unit": "µM"},
      {"measurement": "MIC", "setting": "Pseudomonas aeruginosa; [4]", "result": ">128", "unit": "µM"},
      {"measurement": "MBC", "setting": "Pseudomonas aeruginosa; [5]", "result": ">128", "unit": "µM"},
      {"measurement": "MIC (range over organisms)", "setting": "[1]", "result": "8 to 64", "unit": "µM"},
      {"measurement": "MIC", "setting": "Staphylococcus aureus; [4]", "result": 64, "unit": "µM"},
      {"measurement": "MBC", "setting": "Staphylococcus aureus; [5]", "result": 64, "unit": "µM"},
      {"measurement": "MIC", "setting": "[2]; [4]", "result": 8, "unit": "µM"},
      {"measurement": "MBC", "setting": "[2]; [5]", "result": 8, "unit": "µM"},
      {"measurement": "Hemolysis activity", "setting": "red blood cell; peptide 2 uM", "result": "3.04 ± 0.29", "unit": "%"},
      {"measurement": "Hemolysis activity", "setting": "red blood cell; peptide 4 uM", "result": "2.51 ± 0.24", "unit": "%"},
      {"measurement": "Hemolysis activity", "setting": "red blood cell; peptide 8 uM", "result": "3.05 ± 0.34", "unit": "%"},
      {"measurement": "Hemolysis activity", "setting": "red blood cell; peptide 16 uM", "result": "4.89 ± 0.03", "unit": "%"},
      {"measurement": "Hemolysis activity", "setting": "red blood cell; peptide 32 uM", "result": "10.33 ± 1.06", "unit": "%"},
      {"measurement": "Hemolysis activity", "setting": "red blood cell; peptide 64 uM", "result": "18.09 ± 1.57", "unit": "%"},
      {"measurement": "Hemolysis activity", "setting": "red blood cell; peptide 128 uM", "result": "30.91 ± 2.27", "unit": "%"},
      {"measurement": "Thermal stability (retention time and peak area)", "setting": "[3]", "result": "remained largely unchanged"},
      {"measurement": "Enzymatic stability with trypsin", "setting": "trypsin", "result": "significant degradation"}
    ]},
    {"compound": "ILKWKWPWWKWRR-NH2 [IND-4,11K]", "values": [
      {"measurement": "MBC", "setting": "Candida albicans", "result": 32, "unit": "µM"},
      {"measurement": "MIC", "setting": "Candida albicans", "result": 32, "unit": "µM"},
      {"measurement": "MBC", "setting": "Enterococcus faecium", "result": 32, "unit": "µM"},
      {"measurement": "MIC", "setting": "Enterococcus faecium", "result": 32, "unit": "µM"},
      {"measurement": "MBC", "setting": "Klebsiella pneumoniae", "result": 128, "unit": "µM"},
      {"measurement": "MIC", "setting": "Klebsiella pneumoniae", "result": 128, "unit": "µM"},
      {"measurement": "MBC", "setting": "Pseudomonas aeruginosa", "result": 128, "unit": "µM"},
      {"measurement": "MIC", "setting": "Pseudomonas aeruginosa", "result": 128, "unit": "µM"},
      {"measurement": "MBC", "setting": "Staphylococcus aureus", "result": 48, "unit": "µM"},
      {"measurement": "MIC", "setting": "Staphylococcus aureus", "result": 48, "unit": "µM"},
      {"measurement": "MBC", "setting": "[2]", "result": 8, "unit": "µM"},
      {"measurement": "MIC", "setting": "[2]", "result": 8, "unit": "µM"},
      {"measurement": "Thermal stability (retention time and peak area)", "setting": "[3]", "result": "remained largely unchanged"},
      {"measurement": "Enzymatic stability with trypsin", "setting": "trypsin", "result": "significant degradation"}
    ]}
  ]
}
